From the OligoGym collection
“And” between values parts separate entries of the source, which are not always exact repeats. Equal values may be shown once. After the bases stand the sugars from the 5' end (letter, count) and the backbone: PS all phosphorothioate, else s phosphorothioate and o phosphodiester by linkage. Methylation of C is not given here. e = 2'-O-(2-methoxyethyl) (MOE); k = constrained ethyl (cEt); d = 2'-deoxy (DNA)

Target: SOD1
Details: ASO

“GGCCCACCGTGTTTTCTGGA (sugars e5 d10 e5, PS)” was tested, and the target mRNA inhibition (HepG2, 5 µM) was 46% and 41%.
Work on “GGCGATCCCAATTACAC (sugars e3 k2 d7 k2 e3, PS)” yielded a target mRNA inhibition (HepG2, 3 µM) of 9%.
Sequence “GGGCGATCCCAATTACA (sugars e2 k2 d8 k2 e3, PS)” has a target mRNA inhibition (HepG2, 4 µM) of 30%.
“GGGCGATCCCAATTACA (sugars e2 k2 d9 k2 e2, PS)” showed a target mRNA inhibition (HepG2, 4 µM) of 30%.
“GGGCGATCCCAATTACA (sugars e3 k2 d7 k2 e3, PS)” showed a target mRNA inhibition (HepG2, 3 µM) of 18%.
Sequence “GTCATTGAAACAGACAT (sugars e2 k2 d9 k2 e2, PS)” has a target mRNA inhibition (HepG2, 5 µM) of 15%.
Sequence “GTCGCCATAACTCGCTAGGC (sugars e5 d10 e5, PS)” has a target mRNA inhibition (HepG2, 0.1875 µM) of 10%, a target mRNA inhibition (HepG2, 0.75 µM) of 21% and a target mRNA inhibition (HepG2, 3 µM) of 39%. It also gave a target mRNA inhibition (HepG2, 4 µM) of 40% and a target mRNA inhibition (HepG2, 12 µM) of 90%.
Sequence “GTCGCCCTTCAGCACGC (sugars e3 k2 d7 k2 e3, PS)” has a target mRNA inhibition (HepG2, 3 µM) of 28%.
“GTCTGGCAAAATACAGG (sugars e3 k2 d7 k2 e3, PS)” gave a target mRNA inhibition (HepG2, 3 µM) of 24%.
With “GTGATTTAAGTCTGGCA (sugars e2 k2 d8 k2 e3, PS)” the target mRNA inhibition (HepG2, 5 µM) was 54%.
For “GTGTGCGGCCAATGATGCAA (sugars e5 d10 e5, PS)”, the target mRNA inhibition (HepG2, 5 µM) was 15%.
“GTGTTTAATGTTTATC (sugars kekeddddddddekek, linkages s1 o3 s8 o1 s2)” was tested, and the target mRNA inhibition (A431, 0.12 µM) was 7%, the target mRNA inhibition (A431, 0.6 µM) was 35% and the target mRNA inhibition (A431, 3 µM) was 66%. It also gave a target mRNA inhibition (A431, 15 µM) of 78%, a target mRNA inhibition (HepG2, 0.222 µM) of 53% and a target mRNA inhibition (HepG2, 0.667 µM) of 78%. For the same sequence, the target mRNA inhibition (HepG2, 2 µM) was 82% and the target mRNA inhibition (HepG2, 6 µM) was 90%.
With “GTGTTTAATGTTTATCA (sugars e3 k2 d7 k2 e3, PS)” the target mRNA inhibition (HepG2, 3 µM) was 37%.
Sequence “GTGTTTAATGTTTATCAGGA (sugars e5 d10 e5, PS)” has a target mRNA inhibition (HepG2, 0.1875 µM) of 18%, a target mRNA inhibition (HepG2, 0.75 µM) of 45% and a target mRNA inhibition (HepG2, 3 µM) of 74%. It also gave a target mRNA inhibition (HepG2, 5 µM) of 73% and a target mRNA inhibition (HepG2, 12 µM) of 92%.
“GTTTAATGTTTATCAG (sugars kekeddddddddekek, linkages s1 o3 s8 o1 s2)” showed a target mRNA inhibition (A431, 0.12 µM) of 7%, a target mRNA inhibition (A431, 0.6 µM) of 7% and a target mRNA inhibition (A431, 3 µM) of 41%. It also gave a target mRNA inhibition (A431, 15 µM) of 66%, a target mRNA inhibition (HepG2, 0.222 µM) of 58% and a target mRNA inhibition (HepG2, 0.667 µM) of 78%. For the same sequence, the target mRNA inhibition (HepG2, 2 µM) was 86% and the target mRNA inhibition (HepG2, 6 µM) was 94%.
“GTTTAATGTTTATCAGG (sugars e2 k2 d8 k2 e3, PS)” showed a target mRNA inhibition (HepG2, 0.1875 µM) of 55%, a target mRNA inhibition (HepG2, 0.75 µM) of 78% and a target mRNA inhibition (HepG2, 3 µM) of 87%. The target mRNA inhibition (HepG2, 5 µM) was 87% and the target mRNA inhibition (HepG2, 12 µM) was 93%.
“GTTTATCAGGATACATT (sugars e2 k2 d8 k2 e3, PS)” was tested, and the target mRNA inhibition (HepG2, 0.1875 µM) was 41%, the target mRNA inhibition (HepG2, 0.75 µM) was 73% and the target mRNA inhibition (HepG2, 3 µM) was 89%. The target mRNA inhibition (HepG2, 4 µM) was 85% and the target mRNA inhibition (HepG2, 12 µM) was 92% and 95%.
“TAACAGATGAGTTAAGG (sugars e2 k2 d8 k2 e3, PS)” was tested, and the target mRNA inhibition (HepG2, 4 µM) was 68%.
“TAACAGATGAGTTAAGG (sugars e2 k2 d9 k2 e2, PS)” gave a target mRNA inhibition (HepG2, 0.1875 µM) of 21%, a target mRNA inhibition (HepG2, 0.75 µM) of 64% and a target mRNA inhibition (HepG2, 3 µM) of 85%. The target mRNA inhibition (HepG2, 4 µM) was 80% and the target mRNA inhibition (HepG2, 12 µM) was 96%.
“TAACTGAGTTTTATAAAACT (sugars e5 d10 e5, PS)” gave a target mRNA inhibition (HepG2, 5 µM) of 0%.
“TAAGTCTGGCAAAATAC (sugars e2 k2 d8 k2 e3, PS)” showed a target mRNA inhibition (HepG2, 5 µM) of 24%.
With “TAAGTCTGGCAAAATAC (sugars e2 k2 d9 k2 e2, PS)” the target mRNA inhibition (HepG2, 5 µM) was 46%.
Work on “TAAGTCTGGCAAAATAC (sugars e3 k2 d7 k2 e3, PS)” yielded a target mRNA inhibition (HepG2, 3 µM) of 4%.
For “TAAGTGCCATACAGGGT (sugars e2 k2 d8 k2 e3, PS)”, the target mRNA inhibition (HepG2, 5 µM) was 26%.
For “TAAGTGCCATACAGGGTTTT (sugars e5 d10 e5, PS)”, the target mRNA inhibition (HepG2, 5 µM) was 13%.
In the case of “TAATGTTTATCAGGAT (sugars kekeddddddddekek, linkages s1 o3 s8 o1 s2)”, the target mRNA inhibition (A431, 0.12 µM) is reported as 0%, the target mRNA inhibition (A431, 0.6 µM) is reported as 15% and the target mRNA inhibition (A431, 3 µM) is reported as 17%. For the same sequence, the target mRNA inhibition (A431, 15 µM) was 48%.
In the case of “TACAGCTAGCAGGATAA (sugars e2 k2 d8 k2 e3, PS)”, the target mRNA inhibition (HepG2, 0.1875 µM) is reported as 35%, the target mRNA inhibition (HepG2, 0.75 µM) is reported as 70% and the target mRNA inhibition (HepG2, 3 µM) is reported as 90%. For the same sequence, the target mRNA inhibition (HepG2, 4 µM) was 85% and 77% and the target mRNA inhibition (HepG2, 12 µM) was 91% and 97%.
“TACAGGGTTTTTATTCA (sugars e2 k2 d9 k2 e2, PS)” was tested, and the target mRNA inhibition (HepG2, 5 µM) was 31%.
For “TACAGTGTTTAATGTTT (sugars e3 k2 d7 k2 e3, PS)”, the target mRNA inhibition (HepG2, 3 µM) was 30%.
